pIC50: −log10 of the molar value.
Biological target: T1, Mucosa-associated lymphoid tissue lymphoma translocation protein 1 (Homo sapiens, UniProt Q9UDY8)
T1 sequence (Q9UDY8 whole entry): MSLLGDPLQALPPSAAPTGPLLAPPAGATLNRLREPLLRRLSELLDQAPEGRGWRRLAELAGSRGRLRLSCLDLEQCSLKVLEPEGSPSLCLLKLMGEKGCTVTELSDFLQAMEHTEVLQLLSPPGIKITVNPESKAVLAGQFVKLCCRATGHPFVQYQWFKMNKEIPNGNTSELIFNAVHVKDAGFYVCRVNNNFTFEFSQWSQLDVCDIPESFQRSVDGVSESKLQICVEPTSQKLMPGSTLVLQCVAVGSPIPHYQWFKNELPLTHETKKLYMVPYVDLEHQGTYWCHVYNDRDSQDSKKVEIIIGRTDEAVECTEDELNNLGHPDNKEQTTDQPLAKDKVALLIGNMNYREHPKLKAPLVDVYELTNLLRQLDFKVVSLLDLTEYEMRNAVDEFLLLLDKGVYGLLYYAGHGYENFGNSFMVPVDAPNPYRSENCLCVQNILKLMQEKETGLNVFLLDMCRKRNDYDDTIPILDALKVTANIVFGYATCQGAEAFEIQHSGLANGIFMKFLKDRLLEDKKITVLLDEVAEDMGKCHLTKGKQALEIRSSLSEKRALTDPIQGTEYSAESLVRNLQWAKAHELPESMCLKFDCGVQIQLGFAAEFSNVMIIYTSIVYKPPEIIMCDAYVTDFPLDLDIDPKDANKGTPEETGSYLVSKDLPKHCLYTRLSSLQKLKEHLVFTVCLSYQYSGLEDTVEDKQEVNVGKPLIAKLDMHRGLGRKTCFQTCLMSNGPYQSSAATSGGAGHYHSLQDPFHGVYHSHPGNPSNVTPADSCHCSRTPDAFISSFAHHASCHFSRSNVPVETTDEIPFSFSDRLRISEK
Assay: MALT1 Enzyme Activity Assay
Method: The compound and the enzyme were pre-incubated at room temperature for 50 min. The substrate was then added and the reaction was carried out for 4 h.

Row | Structure (SMILES) | pIC50
1 | CS(C)(=O)=Nc1ncc(NC(=O)c2cnn(-c3ccc4c5c(cccc35)C(=O)N4)c2C(F)(F)F)cc1C(F)(F)F [US20250059196, Example 30] | 6.85
2 | N#Cc1ccnn1-c1ncc(NC(=O)c2cnn(-c3ccc4c5c(cccc35)C(=O)N4)c2C(F)(F)F)cc1C(F)(F)F [US20250059196, Example 32] | 6.91
3 | O=C(Nc1cnc(-c2nccs2)c(C(F)(F)F)c1)c1cnn(-c2ccc3c4c(cccc24)C(=O)N3)c1C(F)(F)F [US20250059196, Example 33] | 7.34
4 | O=C(Nc1cnc(-c2ncco2)c(C(F)(F)F)c1)c1cnn(-c2ccc3c4c(cccc24)C(=O)N3)c1C(F)(F)F [US20250059196, Example 34] | 7.49
5 | Cc1nc(-c2ncc(NC(=O)c3cnn(-c4ccc5c6c(cccc46)C(=O)N5)c3C(F)(F)F)cc2C(F)(F)F)oc1C [US20250059196, Example 35] | 7.23
6 | O=C(Nc1cnc(N2CCC2)c(Cl)c1)c1cnn(-c2ccc3c4c(cccc24)C(=O)N3)c1C(F)(F)F [US20250059196, Example 48] | 6.85
7 | O=C(Nc1ccc(-n2cccn2)c(C(F)(F)F)c1)c1cnn(-c2ccc3c4c(cccc24)C(=O)N3)c1C(F)(F)F [US20250059196, Example 51] | 7.33
8 | O=C(Nc1ccc(C(=O)N2CCCC2)c(C(F)(F)F)c1)c1cnn(-c2ccc3c4c(cccc24)C(=O)N3)c1C(F)(F)F [US20250059196, Example 52] | 6.98
9 | O=C(Nc1ccc(-n2cccn2)c(C(F)(F)F)c1)c1cnn(-c2cnc3c4c(cccc24)C(=O)N3)c1C(F)(F)F [US20250059196, Example 74] | 6.71
10 | O=C(Nc1ccc(-n2nccn2)c(Cl)c1)c1cnn(-c2cnc3c4c(cccc24)C(=O)N3)c1C(F)(F)F [US20250059196, Example 75] | 7.62
11 | CCc1cc(-n2ncc(C(=O)Nc3ccnc(C(F)(F)F)c3)c2C(F)(F)F)c2cccc3c2c1NC3=O [US20250059196, Example 89] | 6.97

Continued, values first:

Row | pIC50 | Structure (SMILES)
12 | 7.40 | O=C(Nc1cnc(-n2cccn2)c(C(F)(F)F)c1)c1cnn(-c2ccc3c4c(cccc24)C(=O)N3)c1C(F)(F)F [US20250059196, Example 31]
13 | 7.28 | O=C(Nc1cnc(-n2ccnn2)c(C(F)(F)F)c1)c1cnn(-c2ccc3c4c(cccc24)C(=O)N3)c1C(F)(F)F [US20250059196, Example 36]
14 | 7.09 | O=C(Nc1cnc(-n2cccn2)c(C(F)(F)F)c1)c1cnn(-c2cnc3c4c(cccc24)C(=O)N3)c1C(F)(F)F [US20250059196, Example 69]
15 | 6.72 | O=C(Nc1ccc(-n2nccn2)c(C(F)(F)F)c1)c1cnn(-c2cnc3c4c(cccc24)C(=O)N3)c1C(F)(F)F [US20250059196, Example 73]
16 | 7.46 | O=C(Nc1cnc(-n2nccn2)c(C(F)(F)F)c1)c1cnn(-c2cnc3c4c(cccc24)C(=O)N3)c1C1CC1 [US20250059196, Example 78]
17 | 7.08 | O=C(Nc1cnc(-n2nccn2)c(C(F)(F)F)c1)c1cnn(-c2ncc3c4c(cccc24)C(=O)N3)c1C(F)(F)F [US20250059196, Example 87]

— BindingDB's records for patent US20250059196 (Shanghai Hansoh Biomedical, 2025)
